# Experiments:
# [1] = test system: galectin-3 accumulation in JIMT-1 cells; test: Inhibition of GPN-induced galectin-3 accumulation around disrupted lysosomes; format: cell-based, human; details: 1 or 10 μM for 24 h, then 0.3 mM GPN 12 min, positive control
# Experimental: The cells were, after the GPN treatment, quickly washed with PBS and fixed with 3.7% formaldehyde for 15 min before blocking/permeabilization with 1% Tween® 20 and 1–5% BSA in PBS for at least 45 min. […] The cell nuclei were visualized by staining with the DNA-binding fluorescent agent bisbenzimide (Hoechst). The coverslips were finally mounted on glass slides using Mowiol® 4-88 and left at 8 °C overnight to solidify before examination. The samples were imaged with an LSM-510 confocal laser scanning microscope (Carl Zeiss Microscopy GmbH, Oberkochen, Germany) equipped with a Hamamatsu R6357 photomultiplier (Hamamatsu Photonics K.K., Hamamatsu, Japan).
# [2] = molecular target: T1, galectin-3 (Homo sapiens, UniProt P17931); test: Galectin-3-induced hemagglutination of hen erythrocytes in V-shaped microplates; format: cell-based; details: for Estimated MIC, inhibition of galectin-3-induced hemagglutination, V-plate: MIC given as concentration interval
# Experimental: Hemagglutination by galectin-3 was investigated in two assays, hemagglutination in V-shaped microplates (96 wells) and hemagglutination in gel cards described by Nowak et al. ([47]) and Lapierre et al. ([48]), respectively. Briefly, fresh hen blood in Alsever's solution was washed with 0.15 M NaCl, whereupon a 4% erythrocyte solution (by volume in PBS) was prepared and incubated with 1 mg/ml trypsin at 37 °C for 1 h. The cells were then washed with 0.15 M NaCl. The erythrocytes were diluted and preserved as a 10% solution in ID-CellStab solution. For the hemagglutination in V-shaped microplates, 1 volume of erythrocyte suspension in PBS (final concentration 0.6%), 1 volume of galectin solution, 1 volume of 0.15 M NaCl with or without the galectin inhibitor, and 1 volume of 1% bovine serum albumin (BSA) in 0.15 M NaCl were added to each well of the microplate. The plate was then shaken vigorously for 90 min at room temperature and then left standing still for at least 90 min before observing the hemagglutination status in each well. […] Each mixture was then transferred to individual gel card wells, whereupon the cards were centrifuged for 10 min at 85 × g in an ID-Centrifuge (DiaMed GmbH) and thereafter photographed and analyzed for hemagglutination.
# [3] = molecular target: T1, galectin-3; test: Fluorescence anisotropy assay, galectin-3; format: binding; details: MIC = inhibitor concentration bringing bound probe to 50%; Fig. 4
# Experimental: FA was used to analyze interactions of probes and ligands with galectins in solution, as described before ([41][–][44]). A PheraStarFS plate reader, with software PHERAstar Mars version 2.10 R3 (BMG, Offenburg, Germany), was used, and FA of fluorescein-tagged saccharide probes was measured with excitation at 485 nm and emission at 520 nm.
# The anisotropy (A) is given in units of mA, where the theoretical maximum is 400, and the value for free fluorescein typically 23. All conditions were measured in at least two duplicate wells.
# In this study, the effect of inhibitors of the saccharide probe/galectin interaction was tested in two ways. In the first, a fixed low concentration of fluorescein-tagged probe (0.1 μM) and galectin were mixed with a range of concentrations of inhibitor. An optimal probe was chosen for each galectin to permit use of as low as possible concentration of galectin, while still achieving a sufficient rise in anisotropy for a reliable measuring range ([42][–][44]). […] With structurally defined inhibitors (pure synthetic galacto-oligosaccharides, small galactomannans, and reference ligands) the molecular mass, molar concentrations, and number of binding sites (in this case one binding site per ligand) were known and their dissociation constants (Kd) could therefore be directly calculated, using the data from the FA assay as described in Sörme et al. ([41]). […] Even if the molar concentration of the inhibitor is not known, the anisotropy value at a given condition permits calculation of the molar concentration of free galectin, as described below, and from this what fraction of the galectin is bound by a given mass per volume concentration of inhibitor. From this, the ratio of the molar concentration of the free inhibitor binding sites to their Kd value can be calculated, even if the FA assay cannot distinguish between the case when this is due to a few high affinity binding sites in the polysaccharide fraction or many of low affinity.
# T1 sequence (P17931 whole entry): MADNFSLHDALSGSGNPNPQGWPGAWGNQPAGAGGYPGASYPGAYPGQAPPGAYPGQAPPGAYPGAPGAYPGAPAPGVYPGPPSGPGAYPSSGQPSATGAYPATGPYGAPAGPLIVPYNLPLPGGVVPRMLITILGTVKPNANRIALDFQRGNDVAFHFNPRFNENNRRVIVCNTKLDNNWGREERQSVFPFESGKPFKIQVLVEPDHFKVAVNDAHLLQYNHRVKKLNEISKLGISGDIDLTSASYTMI
compound,measurement,setting,value
"OC[C@H]1O[C@@H](S[C@@H]2O[C@H](CO)[C@H](O)[C@H](n3cc(-c4cccc(F)c4)nn3)[C@H]2O)[C@H](O)[C@@H](n2cc(-c3cccc(F)c3)nn2)[C@H]1O [33DFTG, 3,3′-Dideoxy-3,3′-bis-[4-(3-fluorophenyl)-1H-1,2,3-triazol-1-yl]-1,1′-sulfanediyl-di-β-D-galactopyranoside]",inhibition of GPN-induced galectin-3 accumulation,[1],inhibit the galectin-3 accumulation
same,"Estimated MIC, inhibition of galectin-3-induced hemagglutination, V-plate",[2]; 1 μM galectin-3,0.25 to 0.74 µM
same,"Estimated MIC, inhibition of galectin-3-induced hemagglutination, V-plate",[2]; 5 μM galectin-3,2.22 to 6.67 µM
same,"slope of MIC versus galectin-3 concentration, hemagglutination","[2]; V-shaped microtiter plates, Fig. 4",around 1
same,"slope of MIC versus galectin-3 concentration, FA assay",[3],around 1

# — article PMC4933242, “Low or No Inhibitory Potency of the Canonical Galectin Carbohydrate-binding Site by Pectins and Galactomannans*” (The Journal of Biological Chemistry, 2016)
